In general, IC50 refers to the concentration at which inhibition is half-maximal.

The source of these data is patent publication US6774143B1, “Method for treating cells resistant to antineoplastic agents” (Novartis AG, priority 2003, dated 2004).

The subject of data set [1] is 1A9PTX22 cell line. Nature of the data set: In vivo hollow fiber assay in nude mice. As to the method: (§1) PVDF hollow fibers (Spectrum, Gardena, Calif.) are soaked in 70% EtOH for 72 hours before use. After this step, all handling of fibers are done under a biological laminar flow hood using aseptic procedures. Individual fibers are flushed with 3 mL of the ice-cold tissue culture media using a syringe equipped with a 20-gauge needle. Next, each fiber is filled with an appropriate cell suspension (1×10^6 cells/mL for the 1A9 and 1A9PTX22 cells, and 0.5×10^6 cells/mL for the LS 174T cells), and both ends of the fiber are sealed with a hot flat needle holder. The entire length of the fiber is then sealed into 1.5 cm microcapsules (further called “hollow fibers”), each containing approximately 15 uL of the appropriate cell suspension. After separation, individual hollow fibers are placed in 6 well plates (6 fibers in 5 mL media per well), and are incubated overnight at 37° C. in the tissue culture incubator.
(§2) Outbred athymic (nu/nu) female mice (“Chrls:Athymic Nude-nu”, Charles River Laboratories, Wilmington, Mass.) are anesthetized with ip injections of Ketamine/Xylazine (150 mg/kg, and 12 mg/kg body weight, respectively). For the subcutaneous implantation an 11-gauge trocar containing one or two hollow fibers is inserted into an incision made with scissors at the nape of the neck of an animal, and fibers are released by retracting the trocar while depressing the plunger. This procedure is repeated until all three hollow fibers are implanted. One wound clip is used to close the skin incision After the surgery each animal receives a single, subcutaneous injection of 0.4 mg/kg butorphenol to relieve any potential pain. Animals recover from the anesthesia on a heating pad, before retuning to their cages.
(§3) One day after the implantation (3 hollow fibers/animal, each hollow fiber containing one cell line: LS 174T, 1A9, and 1A9PTX22) animals are randomly sorted into five groups of six mice/group. The first group is sacrificed; hollow fibers are retrieved, and processed according to a published procedure (Hollingshead M G, et al. Life Sciences 1995, 57(2):131-141), to determine the number of viable cells in each fiber (T0.)
(§4) On day 6 all animals are sacrificed, and hollow fibers are retrieved, and processed according to Hollingshead, M G, (supra) to determine the number of viable cells in each fiber (T—for fibers from animals treated with experimental compounds, C—for fibers from animals treated with corresponding vehicles). Antitumor activity is expressed as % Mean ΔT/Mean ΔC [comparing cell growth for treatment group to vehicle control group, where % Mean ΔT/Mean ΔC=(Mean T—Mean T0/Mean C—Mean T0)×100%]. Regressions are calculated using the formula: (1−Mean T/Mean T0)×100%. Statistical significance of the results is uniformly evaluated using a two-tailed Student's t-test.
(§5) Discodermolide is isolated from the sponge Discodermia dissoluta using the method of Gunasekera SP (supra). Multiple batches of compound of similar purity (all>95% pure, as determined by mass spectrometry, and nuclear magnetic resonance analysis) are used throughout the various studies. For the in vitro cytotoxicity assays all compounds are dissolved in DMSO and are added to the plates with cells to obtain desired concentrations. […] Paclitaxel is purchased from Sigma/Aldrich, (St. Louis, Mo.). For the in vivo hollow fiber assay, solid discodermolide is dissolved in pure ethanol to create a stock solution which is diluted just before dosing with Cremophor EL and D5W to a final concentration of 16.7% Cremophor EL, 8.3% ethanol and 75% D5W. The compound is administered to mice as a single, 15 mg/kg iv injection. Positive control animals receive clinical formulations of paclitaxel (TAXOL) diluted 4-fold with D5W (12.5% Cremophor El, 12.5% ethanol and 75% D5W final concentrations) and administered iv, at 15 mg/kg, once daily for five consecutive days. Vehicle controls are administered according to the corresponding drug schedules.

Data set [2] relates to LS 174T cell line. Nature of the data set: In vivo hollow fiber assay in nude mice. As to the method:
as §1, §2, §3, §4, §5

Data set [3] deals with 1A9 cell line. Nature of the data set: In vivo hollow fiber assay in nude mice. As to the method:
as §1, §2, §3, §4, §5

The test system of data set [4] is 1A9PTX22 cells (β-tubulin mutation). Nature of the data set: In vitro cytotoxicity assay (MTT). The data set is classed as cell-based, human. As to the method:
1A9 and 1A9PTX22 cells are plated in 96-well plates at 5×10^4 cells/well, plced in a tissue culture incubator and allowed to attach overnight. The next morning, the number of viable cells in the “time 0” plate (3 wells for each cell line) is determined using an MTT assay (Alley M C, et al., Cancer Res. 1988, 48:589-601).
At the same time drugs are added in serial, 10-fold dilutions, to the experimental plates. Corresponding vehicles are added to control plates. Experimental and control plates are then incubated in the tissue culture incubator for 72 hours. After the incubation the number of viable cells is determined in each plate using the MTT assay. IC50s (defined as a concentration of a given compound causing 50% inhibition of cell growth) are determined by comparing cell growth in the drug-treated plate (T−T0) to the cell growth in the corresponding control plate (C−T0). For each experiment results are calculated using average numbers from two sets of plates.
as §5

The nature of data set [5]: In vivo hollow fiber assay, body weight of the animals. Particulars: both experiments. On the set-up: species or system mice. As to the method:
as §2
One day after the implantation (3 hollow fibers/animal, each hollow fiber containing one cell line: LS 174T, 1A9, and 1A9PTX22) animals are randomly sorted into five groups of six mice/group. […]
Discodermolide is isolated from the sponge Discodermia dissoluta using the method of Gunasekera SP (supra). Multiple batches of compound of similar purity (all>95% pure, as determined by mass spectrometry, and nuclear magnetic resonance analysis) are used throughout the various studies. […]

Data set [6] concerns Bcl-xL. Description: Western blot, Bcl-xL phosphorylation. Particulars: 24 hour treatment. It is filed as cell-based, human. As to the method:
Cells are plated at a density of 1.5×10^6 cells per 100 mm plate. The next day cells are treated with vehicle control (0.1% DMSO) or test compound for 24 h. Cells are harvested by washing monolayers twice with PBS, then lysing with 300 ul of lysis buffer[20 mM Tris (pH 8.0), […], 100 mM NaCl, 0.5% NP40, 0.0125% DOC, 2.5% glycerol, 1 mM vanadate, 25 mM sodium fluoride and protease inhibitor cocktail (1:500 dilution, Sigma)]. Lysates were spun at 12,000× g and the supernatant transferred to a new tube. Protein concentration of the lysates is determined using BCA protein assay Reagent (Pierce). Samples (75 μg) are resolved by SDS-PAGE on a 7.5% or 14% tris-glycine gel for Raf-1 and Bcl-xL, respectively, and transferred to nitrocellulose. Immunodetection is performed as described by Amersham Vistra Fluorescence Western blotting Kit directions with the following modifications: the membrane is blocked with 5% milk (Carnation Non-Fat Dry Milk) in buffer containing 20 mM Tris-HCl (pH=7.4), 100 mM NaCl, and 0.2% Tween 20 (TBST) overnight and is subsequently incubated for 2 h with primary antibody (Santa Cruz C-12 for Raf-1 and Santa Cruz H-62 for Bcl-xL), followed by fluorescein-linked anti-rabbit Ig in 5% milk and anti-fluorescein alkaline phosphatase conjugate in TBST at 1:500 and 1:2000 dilutions, respectively. A Storm 860 (Molecular Dynamics) is used to detect fluorescent product according to the manufacturer's instructions.
In general terms: Immunoblotting shows a protein as a band on a membrane.

The mark [7] stands for this setting: first experiment, discodermolide single 15 mg/kg iv.
The mark [8] stands for this setting: second experiment, discodermolide single 15 mg/kg iv.
The mark [9] stands for this setting: first experiment, paclitaxel iv 15 mg/kg once daily for 5 days.
[10] abbreviates: second experiment, paclitaxel iv 15 mg/kg once daily for 5 days.

≈ marks a conversion by molar mass, not a printed value. Like-named read-outs stand apart in the source and are kept apart here.

With `C=C/C=C\[C@H](C)[C@H](OC(N)=O)[C@@H](C)[C@H](O)[C@@H](C)C/C(C)=C\[C@H](C)[C@@H](O)[C@@H](C)/C=C\[C@@H](O)C[C@@H]1OC(=O)[C@H](C)[C@@H](O)[C@H]1C` [discodermolide, (+)-Discodermolide], the T/C is −13% in data set [1] (setting [7]); 13% in data set [1] (setting [8]); 7% in data set [2] (setting [7]); 13% in data set [2] (setting [8]); 8% in data set [3] (setting [7]); 14% in data set [3] (setting [8]). For the same compound, the regression in data set [1] (first study, discodermolide single 15 mg/kg iv, p<0.01) stood at 13%. For the same compound, the IC50 amounted to 3 ng/mL (≈ 0.00505 µM) in data set [4] (1A9PTX22 cells, 72 hours, second experiment) and 3 ng/mL (≈ 0.00505 µM) in data set [4] (Homo sapiens, 1A9/ptx-22, 72 h). This compound also yielded a body weight lost in data set [5] (discodermolide single 15 mg/kg iv) of 10%. Besides, the Bcl-xL phosphorylation entry in data set [6] (A549 cells) and in data set [6] (MDA-MB-435 cells) was “phosphorylated” throughout.
Take `CC(=O)O[C@H]1C(=O)[C@@]2(C)[C@H]([C@H](OC(=O)c3ccccc3)[C@]3(O)C[C@H](OC(=O)[C@H](O)[C@@H](NC(=O)c4ccccc4)c4ccccc4)C(C)=C1C3(C)C)[C@]1(OC(C)=O)CO[C@@H]1C[C@@H]2O` [paclitaxel, reference compound]: the T/C was 79% in data set [1] (setting [9]); 90% in data set [1] (setting [10]); 3% in data set [2] (setting [9]); 8% in data set [2] (setting [10]); −8% in data set [3] (setting [9]); 2% in data set [3] (setting [10]). Besides, the IC50 was 15 ng/mL (≈ 0.0176 µM) in data set [4] (Homo sapiens, 1A9/ptx-22, 72 h, 1A9PTX22 cells, 72 hours, first experiment, read-out: IC50) and 9 ng/mL (≈ 0.0105 µM) in data set [4] (Homo sapiens, 1A9/ptx-22, 72 h, 1A9PTX22 cells, 72 hours, second experiment, read-out: IC50). Further, the “fold resistance of 1A9PTX22 versus parental 1A9” value in data set [4] (from IC50s of the two in vitro experiments) came to 20 fold. In addition, the body weight lost in data set [5] (paclitaxel iv 15 mg/kg once daily for 5 days) amounted to 5%. Further, the Bcl-xL phosphorylation result in data set [6] (A549 cells) and in data set [6] (MDA-MB-435 cells) was “phosphorylated” each time.
